From US20210253518A1, “KINASE INHIBITOR” (NISSAN CHEMICAL CORPORATION, priority 2018, published 2021)

Columns and labels:
TAZ protein = assay: Imaging analysis of nuclear translocation in human bone marrow-derived mesenchymal stem cells; assay type: cell-based; conditions: 10 μM, 4 hr, no addition 10.05
Experimental: (§1) Nine fields of view were imaged per well using a 20× objective lens of Operatta CLS. The cell nucleus region and the cytoplasm region were identified from the obtained fluorescence images by using the analysis software Harmony (manufactured by PerkinElmer), and AlexaFluor® 647 fluorescence intensity per unit area and the AlexaFluor® 555 fluorescence intensity per unit area in each region were extracted. The nuclear translocation was evaluated by calculating the ratio of the fluorescence intensity of the cell nucleus region to the fluorescence intensity of the cytoplasmic region from the extracted values. The value becomes greater than 1 as the YAP protein and TAZ protein transfer into the cell nucleus, and less than 1 when localized in the cytoplasm.
(§2) Compounds k-1:B-1, k-1:H-1, and k-1:J-1 were evaluated for nuclear translocation of YAP protein and TAZ protein. For the nuclear translocation, imaging analysis was performed using the human bone marrow-derived mesenchymal stem cells (manufactured by PromoCell) and OperettaCLS (manufactured by PerkinElmer) described in Example 4. The compounds were added such that the final concentration of the test concentration of k-1:B-1, k-1:H-1, and k-1:J-1 was 10 μM.
(§3) Human bone marrow-derived mesenchymal stem cells cultured according to the protocol recommended by PromoCell were seeded on a 96-well plate (manufactured by PerkinElmer, CellCarrier-Ultra) at 25,000 cells/90 μL/well on the cycloolefin bottom surface, and cultured in a CO2 incubator (37° C., 5% CO2) for 1 day. After culturing, k-1:B-1, k-1:H-1, and k-1:J-1 solutions having a concentration of 100 μM were added. The cells were cultured in a CO2 incubator at 37° C. for 4 hr. The medium was exchanged with 4% para-formaldehyde solution, and the cells were fixed by allowing to stand at room temperature for 10 min. The fixed cells were subjected to immunostaining by the method described in Example 4.

YAP protein = assay: as above; assay type: cell-based; conditions: 10 μM, 4 hr, no addition 8.96
Experimental: as §1, §2, §3

| Structure (SMILES) | TAZ nuclear translocation rate (TAZ protein) | YAP nuclear translocation rate (YAP protein) |
| --- | --- | --- |
| CC/C(=N\NC(=O)C(C)Nc1ccccc1)c1ccc(O)c(C)c1O (stereo not drawn) [k-1:B-1] | 11.59 | 10.17 |
| CCC(=NNC(=O)CNc1ccccc1)c1ccc(O)c(C)c1O [k-1:H-1] | 13.42 | 11.55 |
| CC/C(=N\NC(=O)NCc1cccc(O)c1)c1ccc(O)c(C)c1O [k-1:J-1] | 14.95 | 12.70 |
